Measurements reported in ChEMBL document CHEMBL1154133, “Pestalazines and pestalamides, bioactive metabolites from the plant pathogenic fungus Pestalotiopsis theae” (J Nat Prod, 2008).
pEC50, pIC50: −log10 of the molar value. In brackets after ≈: the same amount, converted by molar mass. Where a name gives a salt, the structure may show the parent alone.

Columns and labels:
[1] = tested on: Aspergillus fumigatus; experiment: Antifungal activity against Aspergillus fumigatus ATCC 10894 by alamar blue assay; type: functional
[2] = tested on: Human immunodeficiency virus 1; experiment: Antiviral activity against HIV1 LAI infected in human C8166 cells assessed as inhibition of viral replication by ELISA; type: functional, organism-based; conditions: Human immunodeficiency virus 1, LAI
[3] = Cytotoxicity against human C8166 cells after 4 days by MTT assay; type: cell-based
[4] = tested on: Aspergillus fumigatus; experiment: Antifungal activity against Aspergillus fumigatus ATCC 10894 by microplate reader assay; type: functional, organism-based

Row | Compound | MIC [1] [µM] | pEC50 [2] | CC50 at 96 h [3] [µM] | pIC50 [4]
1 | OC(Cn1cncn1)(Cn1cncn1)c1ccc(F)cc1F [FLUCONAZOLE] | 163 (≈ 50 µg/mL) |  |  | 
2 | CC(C)(C)NC(=O)[C@@H]1CN(Cc2cccnc2)CCN1C[C@@H](O)C[C@@H](Cc1ccccc1)C(=O)N[C@H]1c2ccccc2C[C@H]1O [INDINAVIR SULFATE] |  | 8.26 |  | 
3 | C[C@@H](CC(=O)NC(=O)c1coc(Cc2ccccc2)cc1=O)C(=O)O [PESTALAMIDE A] | 57.8 (≈ 19.8 µg/mL) | 4.19 | > 100 | 5.82
